From ChEMBL document CHEMBL5338719, “Recent advance on pleiotropic cholinesterase inhibitors bearing amyloid modulation efficacy” (Eur J Med Chem, 2022)

Assays:
Cholinesterase [1] = molecular target: T1, Cholinesterase (Equus caballus, UniProt P81908); assay: Inhibition of equine BChE using butyrylthiocholine iodide incubated for 3 mins by Ellman's method
Beta-secretase 1 [2] = molecular target: T2, Beta-secretase 1 (Homo sapiens, UniProt P56817); assay: Inhibition of BACE1 (unknown origin)
Cholinesterase [3] = molecular target: T3, Cholinesterase (Homo sapiens, UniProt P06276); assay: Inhibition of human BChE
T3 sequence (P06276 whole entry): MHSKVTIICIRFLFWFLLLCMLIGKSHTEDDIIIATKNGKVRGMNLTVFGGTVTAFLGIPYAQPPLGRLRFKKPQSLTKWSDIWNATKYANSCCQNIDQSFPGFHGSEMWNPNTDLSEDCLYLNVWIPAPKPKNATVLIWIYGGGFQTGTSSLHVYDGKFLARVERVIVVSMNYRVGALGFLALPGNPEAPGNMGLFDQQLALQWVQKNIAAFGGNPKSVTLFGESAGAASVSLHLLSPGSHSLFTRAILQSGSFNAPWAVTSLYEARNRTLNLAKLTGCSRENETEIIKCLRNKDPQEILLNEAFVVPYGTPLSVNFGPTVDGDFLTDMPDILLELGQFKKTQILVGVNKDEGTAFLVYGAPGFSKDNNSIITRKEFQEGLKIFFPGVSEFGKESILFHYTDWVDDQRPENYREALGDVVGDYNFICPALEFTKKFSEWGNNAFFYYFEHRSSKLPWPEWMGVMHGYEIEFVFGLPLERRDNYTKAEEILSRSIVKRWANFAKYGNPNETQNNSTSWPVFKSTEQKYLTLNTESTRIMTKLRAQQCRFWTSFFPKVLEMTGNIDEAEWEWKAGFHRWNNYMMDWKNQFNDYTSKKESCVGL

Cholinesterase [4] = molecular target: T1, Cholinesterase; assay: Inhibition of equine BChE incubated for 15 mins by Ellman's method
Beta-secretase 1 [5] = molecular target: T2, Beta-secretase 1; assay: Inhibition of BACE1 (unknown origin) expressed in purified baculovirus using RhEVNLDAEFK-Quencher as substrate incubated at 50 uM for 90 mins in dark relative to control
Acetylcholinesterase [6] = molecular target: T4, Acetylcholinesterase (Electrophorus electricus, UniProt O42275); assay: Inhibition of electric eel AChE incubated for 15 mins by Ellman's method
T4 sequence (O42275 whole entry): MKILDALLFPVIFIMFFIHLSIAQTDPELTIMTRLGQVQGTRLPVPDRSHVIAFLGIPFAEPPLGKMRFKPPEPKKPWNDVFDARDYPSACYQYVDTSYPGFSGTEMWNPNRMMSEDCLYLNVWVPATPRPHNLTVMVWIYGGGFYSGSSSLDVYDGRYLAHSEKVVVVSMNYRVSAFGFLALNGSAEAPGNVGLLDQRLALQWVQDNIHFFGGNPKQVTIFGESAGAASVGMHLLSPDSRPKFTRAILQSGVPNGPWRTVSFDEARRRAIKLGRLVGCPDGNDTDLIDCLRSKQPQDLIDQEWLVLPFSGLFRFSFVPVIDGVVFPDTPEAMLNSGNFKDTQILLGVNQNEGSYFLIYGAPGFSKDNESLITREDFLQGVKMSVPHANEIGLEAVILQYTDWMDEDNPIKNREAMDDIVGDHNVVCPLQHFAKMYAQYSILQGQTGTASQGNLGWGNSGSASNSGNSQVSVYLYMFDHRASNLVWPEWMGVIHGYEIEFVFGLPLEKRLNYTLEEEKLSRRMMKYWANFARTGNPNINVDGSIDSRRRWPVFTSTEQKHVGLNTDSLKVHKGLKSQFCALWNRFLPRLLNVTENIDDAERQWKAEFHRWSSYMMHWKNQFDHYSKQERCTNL

[7] = molecular target: T5, Amyloid-beta precursor protein (Homo sapiens, UniProt P05067); assay: Inhibition of amyloid beta 42 (unknown origin) self aggregation at 80 uM incubated for 24 hrs by fluoroscence emission relative to control
T5 sequence (P05067 whole entry): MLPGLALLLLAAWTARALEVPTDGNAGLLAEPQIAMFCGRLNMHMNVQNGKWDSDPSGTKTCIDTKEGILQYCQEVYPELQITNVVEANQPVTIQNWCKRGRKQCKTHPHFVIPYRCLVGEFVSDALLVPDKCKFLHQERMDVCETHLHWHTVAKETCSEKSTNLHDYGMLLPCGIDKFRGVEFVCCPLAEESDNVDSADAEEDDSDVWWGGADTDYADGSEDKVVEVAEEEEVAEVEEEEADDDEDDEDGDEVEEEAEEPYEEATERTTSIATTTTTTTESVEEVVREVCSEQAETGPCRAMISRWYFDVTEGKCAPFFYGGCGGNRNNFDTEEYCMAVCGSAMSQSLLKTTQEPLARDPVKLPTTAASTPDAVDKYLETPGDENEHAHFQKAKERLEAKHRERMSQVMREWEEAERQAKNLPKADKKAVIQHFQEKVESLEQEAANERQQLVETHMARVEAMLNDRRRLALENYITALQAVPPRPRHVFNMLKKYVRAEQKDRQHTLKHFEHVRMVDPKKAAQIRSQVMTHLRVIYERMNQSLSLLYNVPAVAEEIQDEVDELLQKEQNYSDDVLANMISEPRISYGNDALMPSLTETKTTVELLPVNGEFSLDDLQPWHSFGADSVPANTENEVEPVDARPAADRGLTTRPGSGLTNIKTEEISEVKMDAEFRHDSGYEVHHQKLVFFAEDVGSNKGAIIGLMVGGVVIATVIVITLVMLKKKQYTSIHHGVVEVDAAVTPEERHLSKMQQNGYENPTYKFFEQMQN

Acetylcholinesterase [8] = molecular target: Acetylcholinesterase (Torpedo californica, UniProt P04058); assay: Inhibition of pacific electric ray AChE incubated for 15 mins; parameters: species or system Tetronarce californica
Chain of Acetylcholinesterase (Torpedo californica, UniProt P04058) (P04058 whole entry): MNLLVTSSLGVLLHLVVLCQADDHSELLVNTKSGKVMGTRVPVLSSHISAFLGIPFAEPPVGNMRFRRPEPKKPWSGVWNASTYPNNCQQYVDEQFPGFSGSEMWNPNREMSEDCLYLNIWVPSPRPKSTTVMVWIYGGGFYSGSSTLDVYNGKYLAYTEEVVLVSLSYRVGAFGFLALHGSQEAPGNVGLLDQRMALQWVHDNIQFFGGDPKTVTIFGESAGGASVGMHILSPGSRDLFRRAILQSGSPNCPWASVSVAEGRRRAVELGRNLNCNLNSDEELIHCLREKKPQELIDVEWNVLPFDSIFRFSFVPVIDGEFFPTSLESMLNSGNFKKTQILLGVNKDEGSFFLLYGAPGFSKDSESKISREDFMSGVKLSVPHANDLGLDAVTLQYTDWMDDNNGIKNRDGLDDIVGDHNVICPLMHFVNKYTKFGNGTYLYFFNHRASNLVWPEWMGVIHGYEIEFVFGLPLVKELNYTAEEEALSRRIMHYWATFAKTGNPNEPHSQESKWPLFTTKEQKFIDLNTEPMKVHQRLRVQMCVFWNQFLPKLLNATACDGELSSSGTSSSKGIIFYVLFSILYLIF

[9] = molecular target: T5, Amyloid-beta precursor protein; assay: Inhibition of amyloid beta 1 to 42 (unknown origin) CuCl2 induced aggregation at 40 uM by ThT fluorometric assay relative to control
Acetylcholinesterase [10] = molecular target: T6, Acetylcholinesterase (Homo sapiens, UniProt P22303); assay: Inhibition of human AChE
T6 sequence (P22303 whole entry): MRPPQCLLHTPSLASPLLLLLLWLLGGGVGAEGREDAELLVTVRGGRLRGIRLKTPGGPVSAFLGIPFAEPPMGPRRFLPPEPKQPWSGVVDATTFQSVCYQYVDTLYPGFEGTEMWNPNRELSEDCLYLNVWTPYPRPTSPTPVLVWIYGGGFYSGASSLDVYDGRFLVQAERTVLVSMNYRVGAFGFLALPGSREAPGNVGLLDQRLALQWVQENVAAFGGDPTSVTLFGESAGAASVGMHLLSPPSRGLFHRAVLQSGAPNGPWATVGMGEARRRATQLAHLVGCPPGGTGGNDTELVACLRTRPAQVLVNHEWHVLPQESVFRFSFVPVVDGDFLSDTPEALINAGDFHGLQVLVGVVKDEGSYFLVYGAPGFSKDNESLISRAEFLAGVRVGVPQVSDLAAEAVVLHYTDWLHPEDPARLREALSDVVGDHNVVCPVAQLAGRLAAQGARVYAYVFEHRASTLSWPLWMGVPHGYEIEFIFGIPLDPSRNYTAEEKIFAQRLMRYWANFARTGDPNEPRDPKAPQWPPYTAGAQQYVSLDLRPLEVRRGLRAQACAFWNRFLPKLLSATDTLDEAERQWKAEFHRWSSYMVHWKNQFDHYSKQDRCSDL

[11] = molecular target: T5, Amyloid-beta precursor protein; assay: Inhibition of amyloid beta 1 to 42 (unknown origin) aggregation at 50 uM by ThT binding assay relative to control
Beta-secretase 1 [12] = molecular target: T2, Beta-secretase 1; assay: Inhibition of BACE1 (unknown origin) at 50 uM by FRET assay relative to control
Acetylcholinesterase [13] = molecular target: T4, Acetylcholinesterase; assay: Inhibition of electric eel AChE using acetylthiocholine iodine as substrate by Ellman's method
[14] = molecular target: Microtubule-associated protein tau (Homo sapiens) (UniProt P10636); assay: Inhibition of tau (306 to 336 residue) (unknown origin) aggregation at 50 uM incubated overnight by ThT fluorometric assay relative to control
Chain of Microtubule-associated protein tau (Homo sapiens) (P10636 whole entry): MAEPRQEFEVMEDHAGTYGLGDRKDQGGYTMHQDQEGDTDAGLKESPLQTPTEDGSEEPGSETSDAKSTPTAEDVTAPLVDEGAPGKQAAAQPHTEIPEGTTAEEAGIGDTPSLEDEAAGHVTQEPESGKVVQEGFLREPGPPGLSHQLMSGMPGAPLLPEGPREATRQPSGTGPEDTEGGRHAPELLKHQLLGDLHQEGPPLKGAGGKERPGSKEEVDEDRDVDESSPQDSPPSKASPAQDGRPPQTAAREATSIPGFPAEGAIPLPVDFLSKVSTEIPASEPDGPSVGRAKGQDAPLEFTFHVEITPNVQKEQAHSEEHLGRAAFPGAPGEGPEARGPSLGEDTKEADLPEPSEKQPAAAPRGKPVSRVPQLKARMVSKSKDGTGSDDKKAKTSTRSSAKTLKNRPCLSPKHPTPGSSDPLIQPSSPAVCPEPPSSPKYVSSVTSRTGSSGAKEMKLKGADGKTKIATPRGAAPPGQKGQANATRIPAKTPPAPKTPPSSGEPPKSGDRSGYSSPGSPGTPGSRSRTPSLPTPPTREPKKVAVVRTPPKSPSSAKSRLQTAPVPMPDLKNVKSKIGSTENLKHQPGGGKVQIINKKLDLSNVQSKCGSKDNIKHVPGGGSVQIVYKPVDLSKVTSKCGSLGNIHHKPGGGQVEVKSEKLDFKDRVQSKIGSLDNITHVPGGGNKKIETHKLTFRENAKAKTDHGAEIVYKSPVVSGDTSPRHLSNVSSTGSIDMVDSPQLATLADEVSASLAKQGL

[15] = molecular target: T5, Amyloid-beta precursor protein; assay: Inhibition of amyloid beta 1 to 42 (unknown origin) aggregation at 50 uM measured every 10 mins for 72 hrs by ThT fluorometric assay relative to control
[16] = molecular target: T5, Amyloid-beta precursor protein; assay: Inhibition of amyloid beta 1 to 42 (unknown origin) self induced aggregation at 100 uM by thioflavin T-based fluorometric assay relative to control
Cholinesterase [17] = molecular target: T3, Cholinesterase; assay: Inhibition of human BChE by Ellmans method
Beta-secretase 1 [18] = molecular target: T2, Beta-secretase 1; assay: Inhibition of BACE1 (unknown origin) by FRET-based fluorescent analysis
Acetylcholinesterase [19] = molecular target: T6, Acetylcholinesterase; assay: Inhibition of human AChE by Ellmans method
[20] = molecular target: T5, Amyloid-beta precursor protein; assay: Inhibition of amyloid beta 42 (unknown origin) aggregation at 10 uM for 24 hrs by ThT fluorescence assay relative to control
[21] = molecular target: T5, Amyloid-beta precursor protein; assay: Inhibition of amyloid beta 42 (unknown origin) aggregation at 25 uM by Thioflavin T-based fluorescence assay relative to control
Acetylcholinesterase [22] = molecular target: T6, Acetylcholinesterase; assay: Inhibition of human AChE by Ellman's method
Cholinesterase [23] = molecular target: T1, Cholinesterase; assay: Inhibition of equine BChE by Ellman's method
[24] = molecular target: T5, Amyloid-beta precursor protein; assay: Inhibition of amyloid beta 42 (unknown origin) aggregation at 100 uM relative to control
Acetylcholinesterase [25] = molecular target: T4, Acetylcholinesterase; assay: Inhibition of electric eel AChE
[26] = molecular target: T5, Amyloid-beta precursor protein; assay: Inhibition of amyloid beta (25 to 35) (unknown origin) aggregation at 10 uM relative to control
Cholinesterase [27] = molecular target: T1, Cholinesterase; assay: Inhibition of equine BChE
[28] = molecular target: T5, Amyloid-beta precursor protein; assay: Inhibition of amyloid beta 42 (unknown origin) aggregation at 25 uM relative to control

T1 sequence (P81908 whole entry): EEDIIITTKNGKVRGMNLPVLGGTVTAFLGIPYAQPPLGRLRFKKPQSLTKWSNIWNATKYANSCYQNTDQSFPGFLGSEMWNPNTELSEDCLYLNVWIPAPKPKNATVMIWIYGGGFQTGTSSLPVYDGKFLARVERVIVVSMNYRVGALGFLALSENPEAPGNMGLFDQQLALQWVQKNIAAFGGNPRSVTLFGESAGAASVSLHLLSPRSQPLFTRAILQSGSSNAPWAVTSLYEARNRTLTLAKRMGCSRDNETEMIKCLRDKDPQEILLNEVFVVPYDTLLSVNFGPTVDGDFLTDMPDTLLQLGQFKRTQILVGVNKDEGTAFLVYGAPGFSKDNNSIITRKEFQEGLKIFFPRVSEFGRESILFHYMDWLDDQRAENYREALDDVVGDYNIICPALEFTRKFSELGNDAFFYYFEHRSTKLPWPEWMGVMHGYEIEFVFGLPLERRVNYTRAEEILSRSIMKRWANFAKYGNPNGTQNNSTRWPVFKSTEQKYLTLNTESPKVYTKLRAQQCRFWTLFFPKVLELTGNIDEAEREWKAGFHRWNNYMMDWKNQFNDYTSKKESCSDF
T2 sequence (P56817 whole entry): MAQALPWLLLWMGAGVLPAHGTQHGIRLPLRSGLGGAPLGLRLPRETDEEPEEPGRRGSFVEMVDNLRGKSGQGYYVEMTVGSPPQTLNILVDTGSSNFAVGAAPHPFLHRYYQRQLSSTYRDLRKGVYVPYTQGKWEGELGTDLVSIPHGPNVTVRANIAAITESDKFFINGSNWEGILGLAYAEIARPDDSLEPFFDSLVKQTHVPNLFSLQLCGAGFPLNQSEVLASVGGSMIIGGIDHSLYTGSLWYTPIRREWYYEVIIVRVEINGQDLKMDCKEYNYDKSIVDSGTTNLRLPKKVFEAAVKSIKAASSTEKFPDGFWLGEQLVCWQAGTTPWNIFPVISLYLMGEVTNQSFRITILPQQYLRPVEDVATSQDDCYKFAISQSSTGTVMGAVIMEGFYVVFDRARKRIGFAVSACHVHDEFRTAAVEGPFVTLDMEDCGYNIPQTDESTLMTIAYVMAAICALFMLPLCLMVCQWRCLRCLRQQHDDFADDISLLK

## O=C(CCCCC1CCSS1)NCc1cn(CCCCOc2ccc3c(=O)ccoc3c2)nn1 (stereo unspecified)
Cholinesterase [1]
  IC50: 7500 nM

## N=c1oc2ccccc2cc1C(=O)Nc1cc(Br)ccc1N1CCN(Cc2ccc(F)cc2)CC1
Beta-secretase 1 [2]
  IC50: 6310 nM
Cholinesterase [3]
  IC50: 10500 nM

## O=C(NC1CCN(Cc2ccccc2)CC1)c1cc(-c2cccc([N+](=O)[O-])c2)on1
Cholinesterase [4]
  IC50: 15200 nM
Beta-secretase 1 [5]
  inhibition: 24.3%
Acetylcholinesterase [6]
  IC50: 16100 nM

## COc1ccc(C(=O)CCC(=O)NCCCNc2c3c(nc4ccccc24)CCCC3)c2ccccc12
[7]
  inhibition: 70.5%
Acetylcholinesterase [8]
  IC50: 120 nM

## CC(C)C1NC(=O)C=C1NCCN1CCN(Cc2ccccc2)CC1 (stereo unspecified)
[9]
  inhibition: 78.4%

## S=C(NCCCCNc1c2c(nc3ccccc13)CCCC2)Nc1c[nH]c2ccccc12
Cholinesterase [3]
  IC50: 76 nM
Acetylcholinesterase [10]
  IC50: 25 nM

## COc1ccc(/C=C/C(=O)NCCc2cc3ccccc3[nH]2)cc1OC
[11]
  inhibition: 10.1%
Beta-secretase 1 [12]
  inhibition: 40.7%
Acetylcholinesterase [13]
  IC50: 11500 nM

## Clc1ccc2c(NCCCCCN3c4ccccc4Sc4ccccc43)c3c(nc2c1)CCCC3
[14]
  inhibition: 50.5%
Cholinesterase [3]
  IC50: 190 nM
[15]
  inhibition: 74.1%
Acetylcholinesterase [10]
  IC50: 8 nM

## CCN(CCCCCOc1cc(O)c2c(c1)OC(c1ccc(O)cc1)CC2=O)Cc1ccccc1 (stereo unspecified)
[16]
  inhibition: 62.1%

## FC(F)(F)c1ccc(-c2nnc(CNC3CCN(Cc4ccccc4)C3)o2)cc1 (stereo unspecified)
Cholinesterase [17]
  IC50: 74 nM
Beta-secretase 1 [18]
  IC50: 143 nM
Acetylcholinesterase [19]
  IC50: 64 nM

## CN(C)/C=C/C(=O)c1cc2ccc(OCc3cn(Cc4ccc(F)c(F)c4)nn3)cc2oc1=O
Cholinesterase [4]
  IC50: 21700 nM
[20]
  inhibition: 32.6%

## c1cc2[nH]c3nc(NCCCCCCN4CCCC4)nnc3c2cc1N1CCCCC1
[21]
  inhibition: 54.3%
Acetylcholinesterase [22]
  IC50: 320 nM
Cholinesterase [23]
  IC50: 210 nM

## COC(=O)c1cc(C(=O)c2ccc(OC)cc2)n2ccc(CCCc3cc[n+](C)cc3)cc12
Cholinesterase [3]
  IC50: 38900 nM
Acetylcholinesterase [10]
  IC50: 3300 nM
[24]
  inhibition: 55%

## O=C(NCCNc1c2c(nc3cc(Cl)ccc13)CCCC2)c1cc(-c2ccc(Cl)cc2)on1
Acetylcholinesterase [25]
  IC50: 52 nM
Beta-secretase 1 [2]
  IC50: 1650 nM
[26]
  inhibition: 79.4%
Cholinesterase [27]
  IC50: 372 nM

## COC(=O)C(C)c1ccc(-c2ccc(C(=O)/C=C/c3ccc(CN4CCCC4)c(O)c3)cc2)c(F)c1 (stereo unspecified)
Acetylcholinesterase [25]
  IC50: 7150 nM
[28]
  inhibition: 70.7%
